This note sets out measurements from paper PMC4741700 (Oncotarget, 2015).

Where two headings read alike, the source gives them in different places.

One assay has as its system human myeloma cell lines. As to the kind of experiment: Myeloma cell line viability, Cell Titer Glo. Type of assay: cell-based. The settings on record: for differential susceptibilities among myeloma cell lines: discounting U266. How it is done:
(§1) Figure 6 Susceptibilities of multiple myeloma cell lines and primary explants to SBI compounds A. Cell lines. The indicated human myeloma cell lines were treated with the indicated compounds for 3 days at which point the total viable cell count was determined using the Cell Titer Glo assay method. Shown are the IC50 values that were calculated from standard 10-point dose-response curves (Supplementary Figure 3). B. Primary myeloma explants. Myeloma cells were purified from bone marrow aspirates and maintained in culture for 3 days in the presence of varying concentrations of the indicated compounds [86] IC50 values were calculated from dose-response curves (Supplementary Figure 4).
(§2) Cell lines were propagated in RPMI medium or Dulbecco's modified Eagle's minimal essential medium (D-MEM), containing 10% fetal bovine serum, 100 units/mL penicillin G and 100 μg/mL streptomycin. Proliferation and viability assays, cells were performed in 96 well plates in the presence of serial dilutions of compounds. Relative cell numbers and viability were determined 2-4 days later using MTT or CellTiter Glo (Promega, Inc. Madison, WI) assays as previously described.

The test system of the next assay is primary myeloma explants. Briefly: Primary myeloma explant viability. Type of assay: cell-based. The settings on record: for sensitivity of primary myeloma cells: 3 days in culture. How it is done: as §1, §2
Primary myeloma samples were obtained from the Norwegian Myeloma Biobank after obtaining approval from the Regional Ethics Committee.

For assay [1], the system named is N-Myc protein in SK-N-BE(2) cells. Briefly: N-Myc protein immunoblot in neuroblastoma cells. It counts as cell-based, human. The settings on record: within 24 hr. As to the method: As positive and negative controls, respectively, parallel cultures were exposed to 60 μM 10058-F4 (+) or to DMSO vehicle only. B. SK-N-BE(2) cells treated as described in A were fixed and stained with Oil Red O to delineate lipid droplets. C. SK-N-BE(2) cells were exposed to the indicated amounts of Myc inhibitors for 5 days either in the concurrent absence or presence of nerve growth factor (NGF: 50 ng/ml). Typical fields of unfixed cells were then photographed. Note the presence of longer and more numerous neurite outgrowths in cells exposed to Myc inhibitors (arrows).
Immunoblotting was performed as previously described. Antibodies included a mouse mAb against human Myc (1:500 dilution: Clone 9E10, Santa Cruz Biotechnology, Inc. Santa Cruz, CA), a mouse mAb against β−actin (1:10,000 dilution: cat. no.3700S Cell Signaling Technology, Inc. Beverly, MA), a mouse mAb against AMPK (1:1000 dilution: catalog no. 2532, Cell Signaling Technology) and a rabbit polyclonal antibody against AMPK phospho-Thr172 (1:1000 dilution, catalog no.2535, Cell Signaling Technologies).

Another assay has as its target Myc-Max(S) heterodimers (Homo sapiens, UniProt P01106+P61244). As to the kind of experiment: EMSA, DNA binding by Myc-Max(S) heterodimers. Type of assay: biochemical. The settings on record: for fold more potent than celastrol: EMSA Myc-Max(S). An excerpt: B. Formation of a typical Michael adduct with cysteine as an example (depicted in blue) is shown. […] C. […] Recombinant Myc bHLH-ZIP domain (residues 353-437), and full-length Max(S) and Max(L) were used for EMSAs along with a HEX-tagged, double-stranded oligonucleotide containing a Myc binding E-box element (CACGTG). Max(S) is the 151 residue isoform that homodimerizes efficiently but only binds DNA as a heterodimer in association with Myc. The 160 residue isoform, termed Max(L), that does bind DNA as a homodimer and that closely mimics the Myc-Max(S) association was used as a control. D. Graphical representation of EMSA results from triplicate assays performed as described in C.
(§3) The 83 residue His6-tagged Myc bHLH-ZIP domain (amino acids […]), and full-length His6-tagged Max(S) and His6-tagged Max(L) were expressed and purified as previously described. 20 nmol each of Myc and Max(S) or 40 ng of Max(L) were used for EMSA assays that included 30 nmol of a (HEX)-tagged double-stranded E-box-containing oligonucleotide (IDT, Coralville, IA, USA). Importantly, the Myc protein excluded the two C-terminal amino acids (Cys438 and Ala439) from the final sequence, thus eliminating a potential reaction site for quinone methide-containing triterpenoids.

Assay [2] deals with Daudi Burkitt lymphoma cell line. Briefly: Proliferation inhibition of Daudi cells. It counts as cell-based. To be noted: Homo sapiens. As to the method:
as §2

The next assay has as its target T1, Max(L) homodimers (Homo sapiens, UniProt P61244).
T1 construct: full-length His6-tagged Max(S) and His6-tagged Max(L) were expressed and purified as previously described; His6; made in house
Briefly: EMSA, DNA binding by Max(L) homodimers. Type of assay: biochemical. To be noted: recombinant Max(L).
Source text: B. Formation of a typical Michael adduct with cysteine as an example (depicted in blue) is shown. Note that nucleophilic attack by free sulfhydryl-containing molecules occurs at position 6 of the B ring. C. […] Recombinant Myc bHLH-ZIP domain (residues 353-437), and full-length Max(S) and Max(L) were used for EMSAs along with a HEX-tagged, double-stranded oligonucleotide containing a Myc binding E-box element (CACGTG). Max(S) is the 151 residue isoform that homodimerizes efficiently but only binds DNA as a heterodimer in association with Myc. The 160 residue isoform, termed Max(L), that does bind DNA as a homodimer and that closely mimics the Myc-Max(S) association was used as a control. D. Graphical representation of EMSA results from triplicate assays performed as described in C.
as §3

The test system of assay [3] is HL60 promyelocytic leukemia cell line. As to the kind of experiment: Proliferation inhibition of HL60 cells. It counts as cell-based. To be noted: Homo sapiens, HL-60. How it is done:
as §2

Assay [4] concerns NCI-60 cell line collection. As to the kind of experiment: NCI-60 cell line screen. Type of assay: cell-based.
[5] abbreviates: 3 days, Cell Titer Glo, read-out: mean IC50 over myeloma cell lines.
The mark [6] stands for this setting: EMSA, recombinant Myc bHLH-ZIP and Max(S), read-out: IC50, DNA binding by Myc-Max(S) heterodimers.

Myc-Max(S) heterodimers, sequence (P01106 368-452 limits assumed): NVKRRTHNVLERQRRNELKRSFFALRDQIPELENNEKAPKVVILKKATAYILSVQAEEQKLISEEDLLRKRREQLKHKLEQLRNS
Myc-Max(S) heterodimers, sequence (P61244 1-151 isoform P61244-2): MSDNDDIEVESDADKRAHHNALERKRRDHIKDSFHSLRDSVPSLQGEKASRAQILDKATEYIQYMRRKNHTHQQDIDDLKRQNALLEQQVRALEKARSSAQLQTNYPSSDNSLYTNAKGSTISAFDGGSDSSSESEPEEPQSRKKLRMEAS
T1 sequence (P61244 whole entry): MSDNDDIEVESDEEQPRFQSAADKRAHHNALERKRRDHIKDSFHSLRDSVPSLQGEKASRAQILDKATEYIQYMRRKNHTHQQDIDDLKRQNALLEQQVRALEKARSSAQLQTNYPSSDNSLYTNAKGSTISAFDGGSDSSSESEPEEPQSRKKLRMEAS

With `CCc1ccc(C=C2SC(=S)NC2=O)cc1` [10058-F4, [Z,E]-5-[4-ethylbenzylidine]-2-thioxothiazolidin-4-one], the IC50 with human myeloma cell lines (setting [5]) came out at 21800 nM. Further, the “differential susceptibilities among myeloma cell lines” value with human myeloma cell lines is reported as 3-4 fold. Also, in the assay on primary myeloma explants, the “sensitivity of primary myeloma cells” value was “the majority were sensitive”. Moreover, in assay [1], the N-Myc protein level result is reported as “declined”.

As for `CC1=C(O)C(=O)C=C2C1=CC=C1[C@@]2(C)CC[C@@]2(C)[C@@H]3C[C@](C)(C(=O)O)CC[C@]3(C)CC[C@]12C` [Celastrol, celastrol, reference compound], the IC50 was 67 ± 2 µM on Myc-Max(S) heterodimers, 0.09 ± 0.02 µM in assay [2], > 140 µM at Max(L) homodimers and 0.46 ± 0.06 µM in assay [3]. In addition, the N-Myc protein level entry in assay [1] is on record as “declined”.

For `Cc1sc2c(c1C)C(c1ccc(Cl)cc1)=N[C@@H](CC(=O)OC(C)(C)C)c1nnc(C)n1-2` [JQ1], the IC50 with human myeloma cell lines (setting [5]) was 250 nM; in the assay on human myeloma cell lines (3 days, U266 excluded, read-out: mean IC50 over myeloma cell lines disregarding U266), 250 nM. The “fold lower mean IC50 than SBI-0061739” value with human myeloma cell lines (U266 excluded) is < 2 fold. In addition, the “differential susceptibilities among myeloma cell lines” value in the assay on human myeloma cell lines is listed as 20 fold. Further, the “factor by which JQ1 is more effective than 10058-F4” value in the assay with human myeloma cell lines (mean IC50s) is ~90. Further, the “sensitivity of primary myeloma cells” value in the assay with primary myeloma explants is “resistant”. Moreover, in the assay on primary myeloma explants (even at concentrations exceeding 10-20 μM), the “effect against primary myelomas” value is “virtually without effect”.

Consider `C=C(C)C1CCC2(C(=O)O)CCC3(C)C(CCC4C5(C)Cc6nccnc6C(C)(C)C5CCC43C)C12` (stereo not shown) [SBI-0061739], for which the IC50 with human myeloma cell lines (Homo sapiens, U-266, 72 h, 3 days, U266 excluded, read-out: mean IC50 over myeloma cell lines disregarding U266) is 420 nM; in the assay with human myeloma cell lines (Homo sapiens, 8 of 9 cell lines, read-out: IC50 in 8 of 9 myeloma cell lines), < 1000 nM; in assay [4] (7 of 8 cell lines, read-out: IC50 in renal cancer lines), > 2000 nM; in assay [4] (17 cell lines (28%), read-out: IC50 in highly sensitive NCI-60 cell lines), < 2000 nM; in assay [4] (all 6 lines, read-out: IC50 in ovarian cancer lines), > 2000 nM; in assay [2] it was 3.19 ± 2.28 µM. This molecule also registered an IC50 in assay [3] of 0.82 ± 0.23 µM.

In the case of `C=C(C)C1CCC2(C(=O)O)CCC3(C)C(CCC4C5(C)Cc6nc7ccccc7nc6C(C)(C)C5CCC43C)C12` (stereo not shown) [SBI-0069272], the “fold more potent than celastrol” value at Myc-Max(S) heterodimers is 4-6 fold. Further, the IC50 was 10 to 15 µM at Myc-Max(S) heterodimers (setting [6]), 14.3 ± 3.2 µM in assay [2] and 10.8 ± 2.18 µM in assay [3].

As to `CC1(C)CCC2(C(=O)O)CCC3(C)C(=CCC4C5(C)CCC(=O)C(C)(C)C5CCC43C)C2C1` (stereo not shown) [SBI-0640599], the “fold more potent than celastrol” value on Myc-Max(S) heterodimers is given as 4-6 fold. Also, the figures for the IC50 (at Myc-Max(S) heterodimers (setting [6]); in assay [2]; in assay [3]) were 10 to 15 µM, 14.2 ± 3.7 µM and 12 ± 1.28 µM, respectively.

Regarding `C=C(C)C1CCC2(C(=O)O)CCC3(C)C(CCC4C5(C)CCC(=O)C(C)(C)C5CCC43C)C12` (stereo not shown) [SBI-0640601], the values for the IC50 (at Myc-Max(S) heterodimers (setting [6]); in assay [2]; in assay [3]) were 10 to 15 µM, 6.36 ± 1.25 µM and 13.2 ± 1.74 µM, respectively.
